# Laboratory results taken from publication PMC9728284, “Inhibition of Herpes Simplex Viruses, Types 1 and 2, by Ginsenoside 20(S)-Rg3” (Journal of Microbiology and Biotechnology, 2019).
# Several values for one entry are separate records, joined by “and”; a condition that tells them apart may be missing. Identical values can stand only once.
# Key:
# [1] = tested on: PC12 cells; conditions: cited from earlier work
# [2] = tested on: HSV-1; assay: HSV-1 inhibition in Vero cells (PrestoBlue, compound and virus added simultaneously); format: cell-based, Herpes simplex virus type 1 (MacIntyre strain); conditions: for IC50: Human alphaherpesvirus 1, two-fold dilutions, linear regression, Vero cells, read-out: IC50 against HSV-1
# Method: (§1) Herpes simplex virus type 1 (HSV-1, MacIntyre strain, ATCC, VR-539) or herpes simplex virus type 2 (HSV-2, ATCC, VR-734) were used in these studies. Virus titer was determined by plaque assay. Briefly, following 2 h adsorption of various virus dilutions onto a Vero cell monolayer in a 24-well plate, the medium was removed and cells were overlaid with 1.5% carboxymethylcellulose (Sigma) and incubated 48 h at 37°C with 5% CO2. After incubation, cells were fixed with methanol, stained with Giemsa (Sigma) and plaques were counted. Each virus dilution was prepared in quadruplicate.
# (§2) All ginsenosides, isomers, and protopanaxadiols were evaluated for toxic effects on Vero cells prior to anti-viral testing. Cells were seeded at 5,000 cells/well in a black 96-well plate with clear bottom in a volume of 100 µl and allowed to attach for 24 h. The P. ginseng compounds were prepared in DMSO at 100 µM and were taken through serial two-fold dilutions to determine the concentration when the rate of cell death was less than 10%compared to control, untreated cells. Each dilution was tested in three wells and all assays were repeated three times. Following 48 h incubation at 37°C in 5% CO2, 11 µl of PrestoBlue (Invitrogen) was added to each well and the plate was incubated for an additional 30 min. PrestoBlue determines cell viability by changing from blue to red as resazurin is reduced to resorufin by viable cells. Following the PrestoBlue incubation, fluorescence was determined by spectrophotometric reading using Soft Max Pro (Molecular Diagnostics, USA).
# (§3) For cytotoxicity testing, 4 µl of dilutions of the ginsenosides or protopanaxadiols were added to 396 µl of medium 199 and 100 µl of this mixture was added to each of three wells. For anti-viral testing, 4 µl of the non-toxic reagent and 4 µl of HSV-1 or HSV-2 diluted to an MOI of 0.1 were added to 392 µl of medium 199 and 100 µl of this was added to each of three wells. Virus inhibition was determined by comparing the cell death of reagent-exposed cells with cell death of control cells only receiving virus. The 50%inhibitory concentration (IC50) was determined through a series of two-fold dilutions and calculation by linear regression analysis.
# [3] = Cytotoxicity on Vero cells (PrestoBlue cell viability assay); format: cell-based; conditions: African green monkey
# Method: as §2, §3
# [4] = tested on: Vero cells; assay: as above; format: cell-based
# Method: as §2, §3
# [5] = tested on: HSV-2; assay: HSV-2 inhibition in Vero cells (PrestoBlue, compound and virus added simultaneously); format: cell-based, herpes simplex virus type 2; conditions: for Percent Inhibition of HSV-2: ± standard error
# Method: as §1, §2, §3
# [6] = tested on: HSV-1; assay: Plaque reduction of HSV-1 on Vero cell monolayer; format: cell-based, Herpes simplex virus type 1 (MacIntyre strain); conditions: valacyclovir 16 μM, 20(S)-Rg3 50 μM; for Number of Plaques: approximately 50 PFU/well, 48 h, ± standard error; for Percent Reduction (plaques of HSV-1): compared to control
# Method: as §1
# The plaque assay procedure also was used to evaluate the percent plaque reduction; the only procedural change was that a constant virus concentration was used (50 PFU/well). Plaque reduction was measured by comparing the control (virus only), with valacyclovir (16 µM) with virus or 20(S)-Rg3 (50 µM) with virus. Sample wells were evaluated in quadruplicate. Following the 2 h virus adsorption, the methylcellulose-medium containing the same concentrations of valacyclovir or 20(S)-Rg3 was added to the appropriate wells. After 48 h, plaques were fixed, stained and counted.
# [7] = tested on: HSV-1; assay: Time studies of HSV-1 inhibition (PrestoBlue); format: cell-based, Herpes simplex virus type 1 (MacIntyre strain); conditions: for Percent Inhibition of HSV-1: 20(S)-Rg3 50 μM
# Method: For virus inhibition studies described above, reagent 20(S)-Rg3 and virus were added to cells simultaneously. In an attempt to evaluate the potential mode of action of 20(S)-Rg3, various combinations of valacyclovir, 20(S)-Rg3 and HSV-1 were tested at different time periods. The following combinations were evaluated at both one hour and four hours:
# • ● Virus applied to cells first (for one hour or four hours), followed by addition of valacyclovir, 20(S)-Rg3 or both valacyclovir and 20(S)-Rg3 to the cells • ● Valacyclovir or 20(S)-Rg3 or both valacyclovir and 20(S)-Rg3 applied to cells first (for one or four hours), followed by virus • ● Valacyclovir or 20(S)-Rg3 incubated together with virus first for one or four hours then added to cells
# All procedures described for evaluation of virus inhibition were followed in identical fashion as outlined for the PrestoBlue procedure except valacyclovir was used at a constant concentration of 16 µM and 20(S)-Rg3 at 50 µM.
# [8] = Cytotoxicity on Vero cells (PrestoBlue cell viability assay); format: cell-based; conditions: African green monkey, read-out: Percent Cell Viability; for viability at 48 h, 500 μM: 20(S)-Rg3 500 μM
# [9] = design: method as in New Drug Application #20-487/S-007, GlaxoSmithKline; conditions: ref New Drug Application #20-487/S-007, GlaxoSmithKline; cited from earlier work
# [10] = tested on: normal WI 38 cells; design: method as in PMID 18365686; conditions: 120 μM; cited from earlier work
# [11] = tested on: human carcinoma cells KB V20C; conditions: cited from earlier work
# [12] = each compound at its non-toxic concentration (Table 1 c1), MOI 0.1, value in parentheses = higher cell death than virus-alone control
compound,measurement,setting,value
CC(C)=CCC[C@](C)(O)C1CC[C@]2(C)C1C(O)CC1C3(C)CCC(O)C(C)(C)C3CCC12C (stereo partly drawn) [20(S)-protopanaxadiol],concentration not toxic for PC12 cells,[1],20 µM
20(S)-Rh2,Percent Inhibition of HSV-1,[2]; [12],46.2%
CC(C)=CCC[C@](C)(O[C@@H]1O[C@H](CO[C@@H]2OC[C@H](O)[C@H](O)[C@H]2O)[C@@H](O)[C@H](O)[C@H]1O)[C@H]1CC[C@]2(C)[C@@H]1[C@H](O)C[C@@H]1[C@@]3(C)CC[C@H](O[C@@H]4O[C@H](CO)[C@@H](O)[C@H](O)[C@H]4O[C@@H]4O[C@H](CO)[C@@H](O)[C@H](O)[C@H]4O)C(C)(C)[C@@H]3CC[C@]12C [Rb2],Percent Inhibition of HSV-1,[2]; [12],26.4%
CC(C)=CCC[C@](C)(O[C@@H]1O[C@H](CO)[C@@H](O)[C@H](O)[C@H]1O)[C@H]1CC[C@]2(C)[C@@H]1[C@H](O)C[C@@H]1[C@@]3(C)CC[C@H](O)C(C)(C)[C@@H]3[C@@H](O[C@@H]3O[C@H](CO)[C@@H](O)[C@H](O)[C@H]3O[C@@H]3O[C@@H](C)[C@H](O)[C@@H](O)[C@H]3O)C[C@]12C [Re],Percent Inhibition of HSV-1,[2]; [12],26.7%
CC(C)=CCC[C@](C)(O[C@@H]1O[C@H](CO)[C@@H](O)[C@H](O)[C@H]1O)[C@H]1CC[C@]2(C)[C@@H]1[C@H](O)C[C@@H]1[C@@]3(C)CC[C@H](O)C(C)(C)[C@@H]3[C@@H](O[C@@H]3O[C@H](CO)[C@@H](O)[C@H](O)[C@H]3O)C[C@]12C [Rg1],Percent Inhibition of HSV-1,[2]; [12],13.2%
CC(C)=CCC[C@](C)(O[C@@H]1O[C@H](CO[C@@H]2OC[C@@H](O)[C@H](O)[C@H]2O)[C@@H](O)[C@H](O)[C@H]1O)[C@H]1CC[C@]2(C)[C@@H]1[C@H](O)C[C@@H]1[C@@]3(C)CC[C@H](O[C@@H]4O[C@H](CO)[C@@H](O)[C@H](O)[C@H]4O[C@@H]4O[C@H](CO)[C@@H](O)[C@H](O)[C@H]4O)C(C)(C)[C@@H]3CC[C@]12C [Rb3],Percent Inhibition of HSV-1,[2]; [12],30.9%
CC(C)=CCC[C@](C)(O[C@@H]1O[C@H](CO[C@@H]2O[C@@H](CO)[C@H](O)[C@H]2O)[C@@H](O)[C@H](O)[C@H]1O)[C@H]1CC[C@]2(C)[C@@H]1[C@H](O)C[C@@H]1[C@@]3(C)CC[C@H](O[C@@H]4O[C@H](CO)[C@@H](O)[C@H](O)[C@H]4O[C@@H]4O[C@H](CO)[C@@H](O)[C@H](O)[C@H]4O)C(C)(C)[C@@H]3CC[C@]12C [Rc],Percent Inhibition of HSV-1,[2]; [12],28.6%
"CC(C)=CCC[C@](C)(O)C1CC[C@]2(C)C1C(O)CC1C3(C)CCC(OC4OC(CO)C(O)C(O)C4OC4OC(CO)C(O)C(O)C4O)C(C)(C)C3CCC12C (stereo partly drawn) [20(S)-Rg3, Ginsenoside 20(S)-Rg3]",IC50 at 48 h,[3],~400 µM
same,"viability at 48 h, 50 μM","[3]; 20(S)-Rg3 50 μM, parentheses = greater proliferation or metabolic activity than untreated cells, read-out: Percent Cell Viability",113%
same,"viability at 48 h, 100 μM","[3]; 20(S)-Rg3 100 μM, parentheses = greater proliferation or metabolic activity than untreated cells, read-out: Percent Cell Viability",114%
same,selectivity,[4]; Vero cell toxicity IC50 versus antiviral IC50 (HSV-1 and HSV-2),11 fold
same,Percent Inhibition of HSV-1,"[2]; 20(S)-Rg3 25 μM, ± standard error",11.0 ± 2.6%
same,Percent Inhibition of HSV-1,"[2]; 20(S)-Rg3 50 μM, ± standard error",80% and 82.3 ± 3.5%
same,Percent Inhibition of HSV-1,"[2]; 20(S)-Rg3 100 μM, ± standard error",90.3 ± 9.9%
same,IC50,[2],~35 µM
same,Percent Inhibition of HSV-1,[2]; [12],90.3%
same,Percent Inhibition of HSV-2,[5]; 20(S)-Rg3 25 μM,14.3 ± 3.3%
same,Percent Inhibition of HSV-2,[5]; 20(S)-Rg3 50 μM,80% and 81.7 ± 10.3%
same,Percent Inhibition of HSV-2,[5]; 20(S)-Rg3 100 μM,114.7 ± 6.7%
same,IC50,"[5]; Human alphaherpesvirus 2, two-fold dilutions, linear regression, Vero cells, read-out: IC50 against HSV-2",~35 µM
same,Number of Plaques,[6],1.5 ± 0.3
same,Percent Reduction (plaques of HSV-1),[6],97.3%
same,Percent Inhibition of HSV-1,[7]; cells treated with compound 4 h prior to HSV-1 addition,90.1 ± 11.1%
same,Percent Inhibition of HSV-1,[7]; virus present on cells 4 h prior to compound addition,50.7 ± 4.4%
same,"viability at 48 h, 125 μM","[8]; 20(S)-Rg3 125 μM, parentheses = greater proliferation or metabolic activity than untreated cells",122%
same,"viability at 48 h, 250 μM","[8]; 20(S)-Rg3 250 μM, parentheses = greater proliferation or metabolic activity than untreated cells",129%
same,"viability at 48 h, 500 μM",[8],17.7 ± 14.7%
CC(C)=CCC[C@@](C)(O)C1CC[C@]2(C)C1C(O)CC1C3(C)CCC(O)C(C)(C)C3CCC12C (stereo partly drawn) [20(R)-protopanaxadiol],Percent Inhibition of HSV-1,[2]; [12],14.4%
CC(C)=CCC[C@](C)(O[C@@H]1O[C@H](CO[C@@H]2O[C@H](CO)[C@@H](O)[C@H](O)[C@H]2O)[C@@H](O)[C@H](O)[C@H]1O)[C@H]1CC[C@]2(C)[C@@H]1[C@H](O)C[C@@H]1[C@@]3(C)CC[C@H](O[C@@H]4O[C@H](CO)[C@@H](O)[C@H](O)[C@H]4O[C@@H]4O[C@H](CO)[C@@H](O)[C@H](O)[C@H]4O)C(C)(C)[C@@H]3CC[C@]12C [Rb1],Percent Inhibition of HSV-1,[2]; [12],23% and 23.3%
CC(C)=CCC[C@](C)(O[C@@H]1O[C@H](CO)[C@@H](O)[C@H](O)[C@H]1O)[C@H]1CC[C@]2(C)[C@@H]1[C@H](O)C[C@@H]1[C@@]3(C)CC[C@H](O[C@@H]4O[C@H](CO)[C@@H](O)[C@H](O)[C@H]4O[C@@H]4O[C@H](CO)[C@@H](O)[C@H](O)[C@H]4O)C(C)(C)[C@@H]3CC[C@]12C [Rd],Percent Inhibition of HSV-1,[2]; [12],36.1%
"CC(C)[C@H](N)C(=O)OCCOCn1cnc2c(=O)[nH]c(N)nc21 [Valacyclovir, reference compound]","viability at 48 h, 16 μM",[3],~99%
same,percent cell death,"[4]; African green monkey, 48 h, 16 μM",1.2 ± 0.4%
same,IC50,[2],13.2 µM
same,Number of Plaques,[6],8.1 ± 1.1
same,Percent Reduction (plaques of HSV-1),[6],85.7%
same,inhibition at 16 µM,"[7]; Human alphaherpesvirus 1, HSV-1 incubated together with valacyclovir (16 μM) 0 to 4 h prior to addition to cells, read-out: percent inhibition of HSV-1",52.3 to 54.7%
same,reported IC50 ranges,[9],0.02 to 13.5 µg/mL
CC(C)=CCC[C@@](C)(O)C1CC[C@]2(C)C1C(O)CC1C3(C)CCC(OC4OC(CO)C(O)C(O)C4OC4OC(CO)C(O)C(O)C4O)C(C)(C)C3CCC12C (stereo partly drawn) [20(R)-Rg3],Percent Inhibition of HSV-1,[2]; [12],22.7%
"CC(C)=CCCC(C)(O)C1CC[C@]2(C)C1C(O)CC1C3(C)CCC(OC4OC(CO)C(O)C(O)C4OC4OC(CO)C(O)C(O)C4O)C(C)(C)C3CCC12C (some centres unmarked) [Rg3, ginsenoside Rg3]","viability at 48 h, 500 μM",[8],< 20%
same,effect on normal WI 38 cells,[10],no effect
same,cytotoxic concentration,[11],120 µM
